Results published in US20240166637A1, “COMPOUNDS AND METHODS FOR TREATING MALARIA” (Microbiotix, Inc., priority 2021, published 2024).
Values after ≈ are worked out from the molar mass of the structure shown. Where two headings read alike, the source gives them in different places. Values belong to the compound of their own block, whether it stands above or below them.

Columns and labels:
Serum stability (MSS) = assay type: in vitro ADME; conditions: mouse serum exposure; for MSS % consumed: after 60 minutes
Excerpt: The microsome and serum stability assays measure the stability of the inhibitor compounds when exposed to the liver and to serum in vivo. For serum stability, inhibitor compounds were exposed to 55% mouse serum and the resulting samples analyzed by LC/MS to quantitate the remaining parent. […]

P. falciparum = assay: In vitro parasite growth inhibition in PGIM (SYBR Green I); assay type: cell-based
Method: P. falciparum laboratory lines were propagated at the asexual stage with standard methods, in RPMI 1640 medium supplemented with 25 mM HEPES, 31 mM NaHCO3, 0.37 mM hypoxanthine, 10 μg/ml gentamicin, and 10% pooled human serum. Nutrient deprivation experiments utilized standard PSAC Growth Inhibition Medium (PGIM) but with reduced concentrations of individual ingredients. Human serum was exhaustively dialyzed against distilled water before addition to those media. The PGIM contained reduced concentrations of isoleucine (11.4 μM), glutamine (102 μM), and hypoxanthine (3.01 μM) and was supplemented with the dialyzed human serum. Growth inhibition experiments (Burrows et al., Parasitology, 141:128-139 (2013)) were quantified by using a SYBR Green I-based fluorescence assay for parasite nucleic acid in 96-well microplates, as described previously (Dondorp et al., supra (2009)). Ring-stage synchronized cultures were seeded at 1% parasitemia and 2% hematocrit levels in standard medium or PGIM and were maintained for 72 hr at 37° C. in 5% O2/5% CO2 in nitrogen, without medium changes. Cultures were then lysed in 20 mM Tris, 10 mM EDTA, 0.016% saponin, 1.6% Triton X-100, pH 7.5, with SYBR Green I nucleic acid gel stain (Invitrogen, Carlsbad, CA) at 5000-fold dilution.
After a […] incubation, parasite DNA contents were quantified through fluorescence measurements (excitation, 485 nm; emission, 528 nm). Results were presented as IC50 values, defined as the concentration of inhibitor which decreases P. falciparum (Pf) DNA content by 50% (IC50 PGIM).

[1] = Microsome stability (MLMS); assay type: in vitro ADME, mouse; conditions: murine liver microsomes; for MLMS % consumed: after 30 min.
Method: The microsome and serum stability assays measure the stability of the inhibitor compounds when exposed to the liver and to serum in vivo. For microsomal stability measurements, inhibitor compounds were incubated with mouse microsomal proteins in buffer with NADPH (Bevan, C. and R. Lloyd, Anal. Chem., 72:1781-1787 (2000)) and the resulting samples were analyzed by LC/MS to quantitate the remaining parent. The data are calculated as percent of parent remaining.

CYP3A4 = CYP3A4 (Homo sapiens, UniProt P08684); assay: Cytochrome P450 inhibition, fluorogenic substrate assay; assay type: in vitro ADME
Chain of CYP3A4 (P08684 whole entry, species assumed): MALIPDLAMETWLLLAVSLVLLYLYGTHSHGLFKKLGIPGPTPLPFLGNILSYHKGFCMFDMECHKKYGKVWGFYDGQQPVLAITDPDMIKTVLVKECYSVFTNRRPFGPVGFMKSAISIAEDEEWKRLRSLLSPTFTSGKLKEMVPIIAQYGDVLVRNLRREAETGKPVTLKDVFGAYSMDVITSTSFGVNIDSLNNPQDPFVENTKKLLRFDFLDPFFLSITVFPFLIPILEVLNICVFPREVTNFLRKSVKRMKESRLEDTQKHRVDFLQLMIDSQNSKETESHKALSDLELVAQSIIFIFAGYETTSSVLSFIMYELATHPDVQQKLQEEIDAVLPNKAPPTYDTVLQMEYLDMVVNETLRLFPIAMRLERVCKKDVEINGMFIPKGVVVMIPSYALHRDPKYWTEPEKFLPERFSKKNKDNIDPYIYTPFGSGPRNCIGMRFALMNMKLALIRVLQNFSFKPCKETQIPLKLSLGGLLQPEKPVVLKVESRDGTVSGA
Excerpt: To measure Cytochrome P450 inhibition, a fluorogenic substrate assay was used to measure inhibitor compound interference with enzymes that metabolize drugs in vivo (Houston, J., Biochem. Pharmacol., 47:1469-1479 (1994)).

PSAC = assay: Transport inhibition assay: PSAC block by osmotic lysis of infected cells in sorbitol (transmittance); assay type: cell-based, P. falciparum; conditions: for PSAC K0.5: Table 6
Method: Transport experiments were conducted to examine the affinity of the inhibitor compounds for PSAC. Inhibitor affinity for blocking PSAC was determined using a quantitative transmittance assay which is based on the osmotic lysis of infected cells with sorbitol (Desai, S., and A. Pillai, U.S. Pat. No. 8,618,090, supra (2013); Dondorp et al., supra (2009); Hooft van Huijsduijnen, R., and T. N. Wells, supra (2018)). Malaria parasite cultures were enriched at the trophozoite stage via the Percoll-sorbitol method (Pillai et al., Mol. Pharmacol., 82:1104-1114 (2012); Pillai et al., Mol. Pharmacol., 77:724-733 (2010); Wagner et al., Biophys. J., 84:116-123 (2003)), washed, and resuspended at 37° C. and 0.15% hematocrit in 280 mM sorbitol, 20 mM Na-HEPES, 0.1 mg/ml bovine serum albumin, pH 7.4, with the indicated concentrations of inhibitor compounds. Osmotic lysis, resulting from PSAC-mediated sorbitol uptake, was continuously tracked with transmittance measurements through the cell suspension (700-nm wavelength, DU640 spectrophotometer with Peltier temperature control; Beckman Coulter, Fullerton, CA).
Inhibitor dose-response relationships (K0.5 values) were calculated from the times required to reach a fractional lysis threshold. K0.5 estimates obtained with the osmotic lysis assay match those obtained using cell-attached and whole-cell patch-clamp assays (Alkhalil et al., Blood, 104:4279-4286 (2004); Dondorp et al., N. Engl. J. Med., 361:455-467 (2009)), confirming a quantitatively robust and valid assay.

[2] = Solubility by nephelometric method; assay type: physicochemical
Method: The solubility of the inhibitor compounds was determined by the nephelometric method (Bevan, C., and R. Lloyd, supra (2000)). A high-throughput screening method for the determination of aqueous drug solubility using laser nephelometry in microtiter plates. The compounds were serially diluted in DMSO and then added to water. […] Additionally, to confirm the nephelometry results, compounds were stirred with a test vehicle (deionized water, PBS, or D5W) at 20° C. for 4 hours. Additional compound was added if complete dissolution was obtained. The mixture was then filtered and the filtrate assayed by HPLC to quantify the amount of compound in solution (Solubility).

Caco-2 permeability = assay type: in vitro ADME; conditions: human, Caco-2; read-out: Papp, Caco-2 cell monolayer
Method: (§1) The Caco-2 assay is an indicator of the potential oral bioavailability of the inhibitor compound. Caco-2 cells were applied to wells of a collagen-coated BioCoat Cell Environment (BD Biosciences) plate as described (Duraisingh, M., and A. Cowman, Acta Trop., 94:181-190 (2005)). The test agent was added to the apical (A) side and the amount of permeation was determined on the basolateral (B) side by LC/MS/MS analysis. The amount of material on the A and B sides were used to calculate a Papp value (Caco-2 Papp).

[3] = Protein binding in mouse serum by equilibrium dialysis; assay type: in vitro ADME
human HeLa cells = assay: Mammalian cytotoxicity, HeLa cells, 72 hr, MTS; assay type: cell-based
Method: (§2) Cytotoxicity of the inhibitor compounds was quantified using human HeLa cells (CLL-2; American Type Culture Collection, Manassas, VA) seeded at 4000 cells/well in 96-well plates. Cultures were incubated with individual inhibitor compounds for 72 hr at 37° C. in minimal essential medium (Invitrogen) supplemented with 10% fetal calf serum.

[4] = Mammalian cytotoxicity, HeLa cells, 72 hr, MTS; assay type: cell-based, human; conditions: human, HeLa cells; for CC50 at 72 h: 3 days
Method: as §2

CD-1 mice = assay: Murine tolerability; conditions: not dose-related, considered formulation-related
Method: Tolerability. The test compounds were dissolved at concentrations of 1 to 10 mg/mL in various formulations (5% DMSO, 5% cremophor, 80% PEG-300 or 10% DMSO, 80% PEG-400, 1% Polysorbate 80). Male CD-1 mice were dosed with 4 dose levels of each test compound (vehicle control plus 3 dose levels ranging from 10-200 mg/kg as described in Table 8) of test compound by the intravenous (IV), intraperitoneal (IP) or oral (PO) route. Clinical observations described in Table 8 were made at various time points out to 24 hours after which mice were humanely euthanized.
Animals were monitored for 24 hours for signs of toxicity.

[5] = mouse, in vivo
Method: (§3) Tolerability. […] Pharmacokinetics (PK). […] PK parameters were calculated using the WinNonLin program. Efficacy.

[6] = test system: P. falciparum Pf3D70087/N9; assay: Murine efficacy, humanized NSG mouse model infected with P. falciparum; assay type: in vivo
Method: as §3
In a second study, NSG mice were treated with either 25 mg/kg or 50 mg/kg of MBX 4055 either once or twice daily for 4 days by the oral route. […] Percent parasitemia was measured daily for 5 days as were the plasma levels of MBX 3318 and 4055.
Humanized NSG mice infected with P. falciparum were treated with 100 mg/kg of MBX 3318 twice daily for 4 days by the PO route. Control mice were treated with vehicle alone (10% DMSO, 80% PEG400, 1% Polysorbate 80). […] During the assay, blood samples were taken from mice treated with MBX 3318 to measure the levels of compound (FIG. 2B).
The murine model was also employed against MBX 4055. Humanized NSG mice infected with P. falciparum were treated with 25 or 50 mg/kg of MBX 4055 twice daily or 50 mg/kg once daily, for 4 days by the PO route. […] Unfortunately, the remaining mice that were dosed twice daily, including the vehicle-only mouse died within 2-5 days due to the apparent toxicity of the Labrasol-containing vehicle. During the assay, blood samples were taken from mice treated with MBX 4055 to measure the levels of compound (FIG. 3B).

Caco-2 cells = assay: Caco-2 permeability; assay type: in vitro ADME; conditions: apical to basolateral
Method: as §1

[7] = mouse serum, equilibrium dialysis

MSS (% cons) (Serum stability (MSS); % consumed after 60 minutes, Table 4): 0 % cons
MSS % consumed (Serum stability (MSS)): 0 % consumed
MLMS (% cons) ([1]; % consumed after 30 min., Table 4): 17 % cons
MLMS % consumed [1]: 17 % consumed
Cyp 3A4 % inhib. at 5 μM (CYP3A4): 0 % inhib.
inhibition at 5 µM (CYP3A4; human, Table 4, read-out: Cyp 3A4 % Inhib): 0%
solubility ([2]; water, kinetic from dmso stock, H2O, Table 4, read-out: Sol., solubility limit in H2O): 25 µM (≈ 10.8 µg/mL)
Papp A→B (Caco-2 permeability): < 0.5 ×10⁻⁶ cm/s
binding by serum proteins [3]: highly bound by serum proteins
Mouse PB % bound [3, 7]: 100 % bound
fraction unbound ([3]; mouse serum, equilibrium dialysis, Table 4, read-out: PPB, percent protein bound): 0.001
SMILES: Cc1ccc(C)c(N2CCN(S(=O)(=O)c3ccc(-c4ccc(=O)[nH]n4)s3)CC2)c1 [ISG-21, reference compound]
IC50 (P. falciparum; Plasmodium falciparum, Pf growth inhibition in PGIM, 72 hr, read-out: IC50 PGIM): 0.002 µM
IC50 (P. falciparum; Plasmodium falciparum, Table 3, read-out: IC50, Pf growth inhibition in PGIM): 0.002 µM
K0.5, activity in the PSAC assay (PSAC; Table 3): 0.003 µM
PSAC K0.5 (PSAC): 0.003 µM
SI CC50/PSAC K0.5 (human HeLa cells; HeLa CC50 / PSAC K0.5): 28,700
CC50 at 72 h ([4]; Table 3, read-out: CC50, cytotoxicity against HeLa cells): 86 µM
selectivity ratio at 72 h ([4]; HeLa CC50 divided by growth inhibition IC50): 37000

SMILES: N#Cc1cccnc1N1CCN(S(=O)(=O)c2ccc(-c3ccc(=O)[nH]n3)s2)CC1 [MBX-2997, 2-(4-((5-(6-oxo-1,6-dihydropyridazin-3-yl)thiophen-2-yl)sulfonyl)piperazin-1-yl)nicotinonitrile]
IC50 (P. falciparum; Plasmodium falciparum, 72 h, read-out: IC50 PGIM): 0.038 µM
PSAC K0.5 (PSAC): 0.007 µM
solubility ([2]; water, kinetic from dmso stock, solubility limit in H2O, read-out: Solubility): 25 µM (≈ 10.7 µg/mL)
SI CC50/PSAC K0.5 (human HeLa cells; HeLa CC50 / PSAC K0.5): >28,500
CC50 at 72 h ([4]; Table 6, read-out: HeLa CC50): > 200 µM

SMILES: Cc1nccnc1N1CCN(S(=O)(=O)c2ccc(-c3ccc(=O)[nH]n3)s2)CC1 [MBX-4055]
MSS % consumed (Serum stability (MSS)): 5 % consumed
signs of toxicity, PO dosing (CD-1 mice): some slight lethargy
% F (oral bioavailability) [5]: 66%
half-lives (FIG. 1, clearance rates) [5]: favorable half-lives
AUClast ([5]; iv, 10 mg/kg): 34,275 hr*ng/mL
Clearance ([5]; iv, 10 mg/kg): 6.53 mL/min/kg
Half-life ([5]; iv, 10 mg/kg): 1.39 h
Mean residence time ([5]; iv, 10 mg/kg): 1.35 h
VD ([5]; iv, 10 mg/kg): 0.786 L/kg
increase in normalized exposure relative to MBX 3318 ([5]; po): > 30 fold
AUClast ([5]; po, 30 mg/kg): 67,501 hr*ng/mL
Cmax ([5]; po, 30 mg/kg): 11,733 ng/mL
Half-life ([5]; po, 30 mg/kg): 2.27 h
Normalized AUC ([5]; po, 30 mg/kg): 22,500
Tmax ([5]; po, 30 mg/kg): 1 h
reduction of parasite growth with respect to control mice ([6]; humanized NSG mouse, 50 mg/kg once daily for 4 days, PO): over 90%
blood levels of compound compared with IC50 in vitro ([6]; infected NSG mice treated with MBX 4055 PO, FIG. 3B): well above the IC50 in vitro
IC50 (P. falciparum; Pf growth inhibition in PGIM, 72 hr, read-out: IC50 PGIM): 0.042 µM
MLMS % consumed [1]: 47 % consumed
Cyp 3A4 % inhib. at 5 μM (CYP3A4): 0 % inhib.
PSAC K0.5 (PSAC): 0.021 µM
solubility ([2]; solubility limit in H2O, read-out: Solubility): 25 µM (≈ 10.5 µg/mL)
Caco-2 Papp (Caco-2 cells): 7.8 ×10⁻⁶ cm/s
Mouse PB % bound [3, 7]: 94 % bound
CC50 (human HeLa cells; 3 days, Table 6, read-out: HeLa CC50): > 200 µM
SI CC50/PSAC K0.5 (human HeLa cells; HeLa CC50 / PSAC K0.5): >9,524

SMILES: N#Cc1ccncc1N1CCN(C(=O)c2ccc(C(=O)N3CCCC3)s2)CC1 [MBX-4075]
PSAC K0.5 (PSAC): 1.08 µM
CC50 (human HeLa cells): > 200 µM
SI CC50/PSAC K0.5 (human HeLa cells): >185
